Data as given in BindingDB's records for doi:10.1074/jbc.M114.566729 (University of Colorado School of Medicine, 2014).

Target: T1, Eyes absent homolog 2 [253-538] (Human, UniProt O00167)
T1 construct: 253-538
T1 sequence (O00167 whole entry): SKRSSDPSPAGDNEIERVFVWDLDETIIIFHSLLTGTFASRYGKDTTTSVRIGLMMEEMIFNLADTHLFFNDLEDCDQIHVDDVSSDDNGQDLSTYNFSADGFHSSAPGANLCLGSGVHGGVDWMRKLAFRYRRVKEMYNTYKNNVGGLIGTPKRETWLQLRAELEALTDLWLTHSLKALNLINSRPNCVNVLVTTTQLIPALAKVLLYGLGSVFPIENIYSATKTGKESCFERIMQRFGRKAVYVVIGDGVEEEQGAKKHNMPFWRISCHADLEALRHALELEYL
Assay: Eya Phosphatase Assay
Conditions: pH 6.5; 25 °C
Description: Eya activity was measured in 50-μl reactions using black, 96-well, half-volume microtiter plates (Greiner Bio-one) with the substrate OMFP (3-O-methylfluoresceinphosphate, Sigma-Aldrich), which is converted to a fluorescent product OMF upon dephosphorylation. […] Reactions were started by the addition of OMFP, preceded for 1 h at room temperature followed by terminating the reaction with the addition of 75mMEDTA.

IC50: 2.9 µM
Compound: O=C(N/N=C/c1ccc(Sc2ccccn2)s1)c1cccc(F)c1 [NCGC00249327]
